The target in test [1] is T1, Replicative DNA helicase DnaB (Mycobacterium tuberculosis, UniProt P9WMR3).
T1 sequence (P9WMR3 whole entry): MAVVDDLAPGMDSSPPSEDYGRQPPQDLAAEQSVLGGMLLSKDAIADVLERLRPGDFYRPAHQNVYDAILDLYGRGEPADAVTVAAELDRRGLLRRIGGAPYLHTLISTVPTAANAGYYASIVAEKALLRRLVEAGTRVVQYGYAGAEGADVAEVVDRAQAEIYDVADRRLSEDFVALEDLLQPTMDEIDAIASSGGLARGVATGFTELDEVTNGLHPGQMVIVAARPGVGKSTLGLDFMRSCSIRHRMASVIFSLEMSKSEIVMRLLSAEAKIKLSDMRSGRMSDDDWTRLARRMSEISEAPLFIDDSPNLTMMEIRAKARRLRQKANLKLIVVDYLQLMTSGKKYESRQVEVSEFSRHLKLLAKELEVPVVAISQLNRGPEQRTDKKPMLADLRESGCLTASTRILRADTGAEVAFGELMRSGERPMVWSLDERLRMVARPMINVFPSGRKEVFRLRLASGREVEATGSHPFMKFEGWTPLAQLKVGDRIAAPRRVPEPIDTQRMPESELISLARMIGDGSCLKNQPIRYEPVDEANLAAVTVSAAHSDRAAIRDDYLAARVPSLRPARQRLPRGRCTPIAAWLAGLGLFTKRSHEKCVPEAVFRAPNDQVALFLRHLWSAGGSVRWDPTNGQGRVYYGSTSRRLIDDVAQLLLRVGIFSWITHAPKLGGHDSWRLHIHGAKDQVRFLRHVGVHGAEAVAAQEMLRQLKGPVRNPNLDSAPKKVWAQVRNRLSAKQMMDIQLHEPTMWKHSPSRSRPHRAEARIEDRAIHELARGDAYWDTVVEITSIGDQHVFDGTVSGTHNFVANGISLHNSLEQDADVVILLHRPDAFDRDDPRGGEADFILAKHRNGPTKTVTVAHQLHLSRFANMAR
In words: DnaB intein splicing inhibitors, dose response, biochemical, cell-free fluorescence (AID 449749). Type of test: functional.

In test [2] the target is T2, Protein RecA (Mycobacterium tuberculosis, UniProt P9WHJ3).
T2 sequence (P9WHJ3 whole entry): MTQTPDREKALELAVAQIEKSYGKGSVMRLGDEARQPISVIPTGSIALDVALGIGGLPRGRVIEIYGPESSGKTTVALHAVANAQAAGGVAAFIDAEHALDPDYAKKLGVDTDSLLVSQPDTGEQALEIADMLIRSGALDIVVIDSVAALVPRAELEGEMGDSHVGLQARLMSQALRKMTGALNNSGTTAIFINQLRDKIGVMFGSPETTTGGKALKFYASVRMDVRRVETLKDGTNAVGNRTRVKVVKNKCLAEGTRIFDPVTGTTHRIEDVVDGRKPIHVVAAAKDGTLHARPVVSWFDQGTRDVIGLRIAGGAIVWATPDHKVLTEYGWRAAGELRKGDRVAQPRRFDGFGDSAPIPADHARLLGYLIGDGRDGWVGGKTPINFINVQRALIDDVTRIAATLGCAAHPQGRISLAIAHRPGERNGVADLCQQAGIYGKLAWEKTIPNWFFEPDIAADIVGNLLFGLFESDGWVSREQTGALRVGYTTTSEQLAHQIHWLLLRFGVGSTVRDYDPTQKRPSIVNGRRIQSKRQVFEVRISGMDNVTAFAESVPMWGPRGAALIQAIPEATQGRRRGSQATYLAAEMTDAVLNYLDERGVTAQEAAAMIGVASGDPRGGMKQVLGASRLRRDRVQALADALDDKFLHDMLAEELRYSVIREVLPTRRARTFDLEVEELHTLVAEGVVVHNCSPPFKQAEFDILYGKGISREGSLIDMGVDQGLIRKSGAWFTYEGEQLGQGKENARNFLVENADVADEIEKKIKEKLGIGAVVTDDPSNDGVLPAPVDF
In words: Fluorescence Cell-Free Homogeneous Dose Retest to Identify Inhibitors of RecA-Intein Splicing Activity. [Related pubchem assays (depositor defined):AID2097, AID2223, AID489010, AID492950]. Type of test: functional.

Test [3] deals with T3, Kappa-type opioid receptor (Homo sapiens, UniProt P41145). Type of test: functional.
In test [4] the target is Beta-galactosidase (Escherichia coli, UniProt Q8VNN2). Type of test: functional.
Test [5] is described as follows: C. albicans growth with fluconazole, confirmation, fluorescence, retest (AID 2467). The format is functional, cell-based.
In test [6] the target is Mu-type opioid receptor (Homo sapiens, UniProt P35372). In words: HTS Image-Based Screen for Agonists of the MOR Receptor. [Related pubchem assays (depositor defined):AID1777, AID1785, AID1786, AID2133]. The format is functional.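 Also: imaging of beta-arrestin GFP recruitment into spots after receptor activation.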
Test [7] deals with HeLa. Put plainly: Cytotoxicity counterscreen assay for transcriptional activators of heat shock protein 70 (Hsp70). [Related pubchem assays: 1203, 1252 ]. Type of test: functional. The note with it: Homo sapiens. (Counterscreens check selectivity or assay interference.)
Test [8] has as its target T4, Delta-type opioid receptor (Homo sapiens, UniProt P41143). Put plainly: HTS Image-Based Screen for Antagonists of the DOR Receptor. [Related pubchem assays (depositor defined):AID1777, AID1785, AID1786, AID2133]. The format is functional.
Test [9] addresses T3, Kappa-type opioid receptor. The format is functional. This is another data set of the same source.
For test [10], the system named is CHO. Put plainly: cytotoxicity in TLR9-MyD88 CHO cells, dose response, cytotoxicity control for TLR9-MyD88 binding inhibitor project, cell-based, luminescence (AID 588339).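 Also: CHO cells stably coexpressing TLR9 and MyD88 fusions from primary screen; compound exposure lasted 48 hours before viability readout.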 Type of test: functional, hamster. The note with it: Cricetulus griseus.
The target in test [11] is T4, Delta-type opioid receptor. Put plainly: HTS Image-Based Screen for Agonists of the DOR Receptor. [Related pubchem assays (depositor defined):AID1777, AID1786, AID2133]. The format is functional.
For test [12], the target named is Beta Lactamase (Pseudomonas aeruginosa, UniProt Q932Y6). In words: beta-lactamase reporter inhibitor potency, dose response, artefact control for TLR9-MyD88 binding inhibitor project, BLA reporter cells, FRET fluorescence (AID 588341).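 Also: cell based assay in CHO-K1 cells stably expressing beta-lactamase.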 Type of test: cell-based.
The nature of test [13]: NIH-3T3 fibroblast cytotoxicity, dose response, cytotoxicity control, cell-based, fluorescence, Alamar Blue, secondary assay (AID 2327).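 Also: NIH-3T3 mouse fibroblasts cultured with fluconazole at 8 µg/mL.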 Type of test: functional. Background: The colour change of resazurin is a common sign of viable cells or microbes.
Test [14] has as its target G-protein coupled receptor 55 (Homo sapiens, UniProt Q9Y2T6). Put plainly: GPR55 antagonists blocking LPI-driven arrestin recruitment, primary screen, imaging, U2OS, beta-arrestin-GFP, LPI agonist (AID 2013).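 Also: antagonist potency measured as reduced agonist-driven arrestin aggregation.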 Type of test: functional.
The target of test [15] is T5, Insulin-degrading enzyme (Homo sapiens, UniProt P14735).
T5 sequence (P14735 whole entry): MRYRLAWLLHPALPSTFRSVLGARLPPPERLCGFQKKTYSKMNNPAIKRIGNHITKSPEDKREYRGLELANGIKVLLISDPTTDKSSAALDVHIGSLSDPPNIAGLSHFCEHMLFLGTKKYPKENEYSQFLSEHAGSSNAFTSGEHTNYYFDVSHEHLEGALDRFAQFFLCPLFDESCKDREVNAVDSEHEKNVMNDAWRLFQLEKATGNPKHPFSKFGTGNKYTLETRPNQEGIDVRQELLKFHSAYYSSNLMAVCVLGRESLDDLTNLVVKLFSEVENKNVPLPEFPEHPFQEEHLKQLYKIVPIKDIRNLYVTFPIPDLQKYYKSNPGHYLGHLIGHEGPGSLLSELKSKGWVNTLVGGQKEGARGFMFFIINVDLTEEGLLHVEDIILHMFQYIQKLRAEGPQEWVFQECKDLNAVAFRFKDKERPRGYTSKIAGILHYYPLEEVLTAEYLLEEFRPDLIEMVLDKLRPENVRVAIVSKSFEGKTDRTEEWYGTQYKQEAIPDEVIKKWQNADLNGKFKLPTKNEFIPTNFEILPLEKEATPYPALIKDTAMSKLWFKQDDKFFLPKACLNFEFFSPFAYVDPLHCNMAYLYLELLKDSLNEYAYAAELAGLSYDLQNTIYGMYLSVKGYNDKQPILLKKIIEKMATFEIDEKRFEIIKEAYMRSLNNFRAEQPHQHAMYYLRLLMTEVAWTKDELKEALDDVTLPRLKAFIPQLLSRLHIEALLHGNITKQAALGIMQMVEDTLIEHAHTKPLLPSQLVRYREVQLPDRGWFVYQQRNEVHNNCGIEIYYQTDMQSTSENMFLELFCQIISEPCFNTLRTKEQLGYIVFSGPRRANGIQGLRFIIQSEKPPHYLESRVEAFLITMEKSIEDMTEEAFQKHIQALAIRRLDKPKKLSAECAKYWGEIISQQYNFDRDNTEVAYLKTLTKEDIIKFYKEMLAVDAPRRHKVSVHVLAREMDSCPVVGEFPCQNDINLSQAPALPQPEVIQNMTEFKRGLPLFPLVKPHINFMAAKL
Put plainly: activators of endogenous IDE in HEK cells, dose response, cell-based, fluorescence polarization (AID 588439). Type of test: functional.

The target of test [16] is T5, Insulin-degrading enzyme. Put plainly: activators of recombinant IDE enzyme, dose response, counter-screen for IDE activator project, biochemical, fluorescence polarization (AID 588681).
For test [17], the system named is HEK293. In words: HEK cell cytotoxicity by LDH release, dose response, cytotoxicity control for IDE activator project, fluorescence, HEK cells (AID 588440).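 Also: cytotoxicity by LDH release measuring loss of membrane integrity.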 Type of test: functional, cell-based. The following applies: Homo sapiens. A general note: Release of lactate dehydrogenase indicates damage to the cell membrane.
The test system of test [18] is HEK293. Put plainly: optical interference in Abeta FP readout, dose response, artefact control for IDE activator project, biochemical, fluorescence polarization (AID 588442). The format is functional, cell-based. The note with it: Homo sapiens.
In test [19] the test system is Candida albicans. In words: growth inhibition of resistant C. albicans, dose response, CaCi-8, fluconazole, Alamar Blue, dry powder (AID 488807). The format is functional, organism-based.
In test [20] the test system is Candida albicans. In words: single-agent growth inhibition of C. albicans, dose response, counter-screen for antifungal drug resistance project, C. albicans CaCi-2, dry powder (AID 488802). Type of test: functional, organism-based.

The source made the active and inactive calls.

One may read the AC50 as the midpoint of the concentration-response curve, whichever way the signal moves. By EC50 is commonly meant the concentration needed to bring the measured effect to its halfway point. One may read the IC50 as the concentration that gives 50% inhibition. A word on the CC50: it is the concentration that lowers cell viability or growth by half.
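For CC50 in this document: cells exposed to compound for 16 hours before readout.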

T4 sequence (P41143 whole entry): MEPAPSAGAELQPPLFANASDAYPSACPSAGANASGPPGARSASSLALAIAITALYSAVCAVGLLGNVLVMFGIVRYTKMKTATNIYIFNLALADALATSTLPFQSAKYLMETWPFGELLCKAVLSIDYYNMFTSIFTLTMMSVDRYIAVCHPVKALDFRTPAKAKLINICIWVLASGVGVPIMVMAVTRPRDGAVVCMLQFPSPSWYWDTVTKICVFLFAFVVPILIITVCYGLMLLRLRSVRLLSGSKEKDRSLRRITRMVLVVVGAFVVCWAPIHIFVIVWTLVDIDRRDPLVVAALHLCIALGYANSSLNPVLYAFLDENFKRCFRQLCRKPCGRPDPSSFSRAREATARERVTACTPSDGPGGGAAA
T3 sequence (P41145 whole entry): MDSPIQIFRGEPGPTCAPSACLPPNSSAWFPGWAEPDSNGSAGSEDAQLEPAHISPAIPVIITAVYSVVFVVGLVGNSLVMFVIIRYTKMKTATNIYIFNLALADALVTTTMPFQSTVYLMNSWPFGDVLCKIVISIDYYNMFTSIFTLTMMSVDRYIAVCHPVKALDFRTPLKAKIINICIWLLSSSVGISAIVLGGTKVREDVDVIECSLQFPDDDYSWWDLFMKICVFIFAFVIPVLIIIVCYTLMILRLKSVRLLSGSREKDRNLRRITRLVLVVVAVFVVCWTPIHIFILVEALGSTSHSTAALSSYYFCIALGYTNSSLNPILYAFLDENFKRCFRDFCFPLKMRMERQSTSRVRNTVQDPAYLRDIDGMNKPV
Beta-galactosidase, sequence (Q8VNN2 whole entry): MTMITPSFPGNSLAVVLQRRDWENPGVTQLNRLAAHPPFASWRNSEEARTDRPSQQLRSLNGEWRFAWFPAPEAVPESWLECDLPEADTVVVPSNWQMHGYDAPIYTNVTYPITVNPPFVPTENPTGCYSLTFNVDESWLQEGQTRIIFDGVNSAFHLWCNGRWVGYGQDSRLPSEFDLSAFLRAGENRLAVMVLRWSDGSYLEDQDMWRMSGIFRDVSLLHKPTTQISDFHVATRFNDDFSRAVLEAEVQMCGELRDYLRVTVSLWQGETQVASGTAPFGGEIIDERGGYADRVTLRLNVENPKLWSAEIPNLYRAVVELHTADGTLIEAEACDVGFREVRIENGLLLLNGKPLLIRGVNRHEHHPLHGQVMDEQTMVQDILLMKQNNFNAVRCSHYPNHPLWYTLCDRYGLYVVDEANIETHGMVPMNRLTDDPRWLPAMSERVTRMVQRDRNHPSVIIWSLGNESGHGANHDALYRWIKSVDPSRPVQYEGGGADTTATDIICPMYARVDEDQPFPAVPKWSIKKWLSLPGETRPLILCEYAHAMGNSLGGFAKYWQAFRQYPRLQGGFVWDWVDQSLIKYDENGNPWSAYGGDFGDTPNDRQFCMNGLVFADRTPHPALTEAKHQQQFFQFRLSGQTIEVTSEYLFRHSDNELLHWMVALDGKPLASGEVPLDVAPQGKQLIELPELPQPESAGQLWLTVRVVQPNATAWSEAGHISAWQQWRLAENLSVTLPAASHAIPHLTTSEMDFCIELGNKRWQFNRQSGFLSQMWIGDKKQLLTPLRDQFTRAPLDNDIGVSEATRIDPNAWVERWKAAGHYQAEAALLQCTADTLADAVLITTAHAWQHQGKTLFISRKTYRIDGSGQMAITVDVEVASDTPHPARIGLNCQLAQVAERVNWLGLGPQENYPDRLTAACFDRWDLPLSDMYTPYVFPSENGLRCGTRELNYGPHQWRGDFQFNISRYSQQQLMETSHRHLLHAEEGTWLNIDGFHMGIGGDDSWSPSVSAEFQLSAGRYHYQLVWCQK
Mu-type opioid receptor, sequence (P35372 whole entry): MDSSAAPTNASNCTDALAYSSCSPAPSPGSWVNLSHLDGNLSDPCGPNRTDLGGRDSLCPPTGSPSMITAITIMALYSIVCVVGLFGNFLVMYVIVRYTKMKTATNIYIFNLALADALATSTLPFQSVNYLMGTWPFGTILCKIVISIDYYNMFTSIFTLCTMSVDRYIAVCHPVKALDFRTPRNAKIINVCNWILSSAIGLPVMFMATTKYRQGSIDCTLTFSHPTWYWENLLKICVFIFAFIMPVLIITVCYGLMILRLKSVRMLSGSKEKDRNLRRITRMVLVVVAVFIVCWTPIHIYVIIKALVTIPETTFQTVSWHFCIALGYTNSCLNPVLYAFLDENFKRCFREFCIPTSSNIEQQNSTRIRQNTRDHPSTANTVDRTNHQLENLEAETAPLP
G-protein coupled receptor 55, sequence (Q9Y2T6 whole entry): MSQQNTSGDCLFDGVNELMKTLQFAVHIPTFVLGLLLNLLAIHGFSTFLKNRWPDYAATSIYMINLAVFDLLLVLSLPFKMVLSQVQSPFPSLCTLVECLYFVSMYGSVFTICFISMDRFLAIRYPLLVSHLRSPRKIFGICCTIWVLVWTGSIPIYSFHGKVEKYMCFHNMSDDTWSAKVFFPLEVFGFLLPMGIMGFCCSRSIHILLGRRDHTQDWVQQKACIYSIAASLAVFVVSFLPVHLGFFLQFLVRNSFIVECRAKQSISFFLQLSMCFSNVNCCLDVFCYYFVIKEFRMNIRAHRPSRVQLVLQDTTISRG
Beta Lactamase, sequence (Q932Y6 whole entry): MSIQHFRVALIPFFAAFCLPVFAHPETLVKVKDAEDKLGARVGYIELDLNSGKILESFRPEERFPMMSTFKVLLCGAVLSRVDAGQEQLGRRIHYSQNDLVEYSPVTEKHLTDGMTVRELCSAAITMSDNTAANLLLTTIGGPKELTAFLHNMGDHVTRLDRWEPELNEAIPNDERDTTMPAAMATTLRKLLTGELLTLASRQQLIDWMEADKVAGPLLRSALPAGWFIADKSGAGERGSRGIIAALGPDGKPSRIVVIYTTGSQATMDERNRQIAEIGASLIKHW

As to `CNc1cc(Cl)c2nonc2c1[N+](=O)[O-]`, in test [1], the AC50 was 5.31 µM (active). Also, the EC50 in test [2] was 1.77 µM (active); in test [4], > 31.5 µM (inactive); in test [5], 0.752 µM (active); in test [6] it was > 32 µM (inactive); in test [11] it was > 32 µM (inactive); in [13], 4.78 µM (inconclusive). Also, the IC50 is 2.96 µM (active) in test [3]; 10.4 µM (inactive) in test [8]; 8.48 µM in [9]; 1.68 µM (active) in test [10]; 4.73 µM (active) in [12]; 1.11 µM (active) in test [14]. In addition, in [7], the CC50 was > 1.22 µM (active).
As for `Cc1ccc2c(c1)c1c(n2CC(O)CNC2CCCC2)CCCC1` (configuration not stated), the EC50 in [15] is > 54.7 µM (inactive); in [16], > 54.7 µM (inactive); in [18], > 55.9 µM (inactive). In test [17], the IC50 was 61.9 µM (inactive).
As to `CC1CCN(C(=O)Cn2c3ccccc3c3nc4n(c(=O)c32)CCS4)CC1`, the figures for the AC50 in test [19] and in test [20] were 1.97 µM (active) and 108 µM (active), respectively. Further, the figures for the EC50 in [5] and in [13] were 0.979 µM (active) and > 160 µM (inconclusive), respectively.

The values are drawn from ChEMBL document CHEMBL1201862, “PubChem BioAssay data set” (2004).
